Data published in US20020151553A1, “Chemokine receptor antagonists and methods of use therefor” (Millennium Pharmaceuticals, Inc., priority 1996, published 2002).
pIC50: −log10 of the molar value.

What follows are compounds tested against T1, chemokine receptor (RANTES / MIP-1α binding) on THP-1 cell membranes (Homo sapiens, UniProt P32246) (assay: Receptor binding assay with 125I-RANTES or 125I-MIP-1α as ligand and THP-1 cell membranes). Conditions: not given.
T1 sequence (P32246 1-355): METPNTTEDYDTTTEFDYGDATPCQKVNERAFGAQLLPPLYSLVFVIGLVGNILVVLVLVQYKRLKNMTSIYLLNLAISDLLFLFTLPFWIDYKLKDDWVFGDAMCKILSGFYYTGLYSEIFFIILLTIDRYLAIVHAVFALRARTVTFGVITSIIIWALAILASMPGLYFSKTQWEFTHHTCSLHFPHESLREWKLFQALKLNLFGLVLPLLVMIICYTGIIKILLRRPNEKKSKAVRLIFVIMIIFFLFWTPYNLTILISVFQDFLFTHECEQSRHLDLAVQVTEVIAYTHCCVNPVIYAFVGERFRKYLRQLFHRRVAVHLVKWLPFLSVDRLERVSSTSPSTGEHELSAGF
Description: Membranes were prepared from THP-1 cells (ATCC #TIB202). Cells were harvested by centrifugation, washed twice with PBS (phosphate-buffered saline), and the cell pellets were frozen at −70 to −85° C. […] This procedure results in cell lysis. The suspension was mixed well to resuspend all of the frozen cell pellet. Nuclei and cell debris were removed by centrifugation of 400× g for 10 minutes at 4° C. The supernatant was transferred to a fresh tube and the membrane fragments were collected by centrifugation at 25,000× g for 30 minutes at 4° C. The supernatant was aspirated and the pellet was resuspended in freezing buffer consisting of 10 mM HEPES pH 7.5, 300 mM sucrose, 1 μg/ml each aprotinin, leupeptin, and chymostatin, and 10 μg/ml PMSF approximately 0.1 ml per each 10^8 cells). All clumps were resolved using a minihomogenizer, and the total protein concentration was determined using a protein assay kit (Bio-Rad, Hercules, Calif., cat #500-0002). The membrane solution was then aliquoted and frozen at −70 to −85° C. until needed. Binding Assays utilized the membranes described above.

| Compound | pIC50 |
| --- | --- |
| N#CC1(CCCN2CCC(O)(c3ccc(Cl)cc3)CC2)c2ccccc2CSc2ccccc21 (centres unmarked) [Example 10, 4-(4-Chlorophenyl)-1-[3-(11-cyano-6,11-dihydrodibenzo[b,e]thiepin-11-yl)propyl] piperidin-4-ol] | 7.01 |
| O=C(CCN1CCC(O)(c2ccc(Cl)cc2)CC1)C1c2ccccc2CCc2ccccc21 [Example 24, 4-(4-Chlorophenyl)-1-[3-(10,11-dihydro-5H-dibenzo[a,d]cycloheptene-5-yl)-3-propioyl]piperidin-4-ol] | 6.80 |
| N#CC1(CCCN2CCC(O)(c3ccc(Cl)cc3)CC2)c2ccccc2C[S+]([O-])c2ccccc21 (single isomer, unassigned) [Example 14, 4-(4-Chlorophenyl)-1-[3-(11-cyano-6,11-dihydro-5-oxodibenzo[b,e]thiepin-11-yl)propyl]piperidin-4-ol] | 6.55 |
| N#CC1(CCCN2CCC(O)(c3ccc(Cl)cc3)CC2)c2ccccc2CCc2ccccc21 [Example 2, 4-(4-Chlorophenyl)-1-[3-(5-cyano-10,11-dihydro-5H-dibenzo[a,d]cycloheptene-5-yl)propyl]piperidin-4-ol] | 7.28 |
| N#CC1(CCCN2CCC(O)(c3ccc(Cl)cc3)CC2)c2ccccc2C[S+]([O-])c2ccccc21 (single isomer, unassigned) [Example 15, 4-(4-Chlorophenyl)-1-[3-(11-cyano-6,11-dihydro-5-oxodibenzo[b,e]thiepin-11-yl)propyl]piperidin-4-ol] | 6.21 |
| O=C(NCC1(CCCN2CCC(O)(c3ccc(Cl)cc3)CC2)c2ccccc2CSc2ccccc21)Oc1ccccc1 (centres unmarked) [Example 22] | 6.16 |

Same assay, conditions: 125I-RANTES or 125I-MIP-1α as ligand; THP-1 cell membranes; 60 min at room temperature; read-out: IC50 (inhibitor concentration required for 50% inhibition of specific binding)

| Compound | pIC50 |
| --- | --- |
| N#CC1(CCCN2CCC(O)(c3ccc(Cl)cc3)CC2)c2ccccc2COc2ccc(Br)cc21 (centres unmarked) [Example 6, 1-[3-(2-Bromo-11-cyano-6,11-dihydrodibenz[b,e]oxepin-11-yl)propyl]-4-(4-chlorophenyl)piperidin-4-ol] | 6.52 |
| N#CC1(CCCN2CCC(O)(c3ccc(Cl)cc3)CC2)c2ccccc2COc2ccc(F)cc21 (centres unmarked) [Example 5, 4-(4-Chlorophenyl)-1-[3-(11-cyano-6,11-dihydro-2-fluorodibenz[b,e]oxepin-11-yl)propyl]piperidin-4-ol] | 6.72 |
| N#CC1(CCCN2CCC(O)(c3ccc(Cl)cc3)CC2)c2ccccc2CSc2ccc(Br)cc21 (centres unmarked) [Example 13, 1-[3-(2-Bromo-11-cyano-6,11-dihydrodibenzo[b,e]thiepin-11-yl)propyl]-4-(4-chlorophenyl)piperidin-4-ol] | 6.42 |
| N#CC1(CCCN2CCC(O)(c3ccccc3)CC2)c2ccccc2CSc2ccccc21 (centres unmarked) [Example 11, 1-[3-(1l-Cyano-6,11-dihydrodibenzo[b,e]thiepin-11-yl)propyl]-4-phenylpiperidin-4-ol] | 4.96 |
| N#CC1(CCCN2CCC(O)(c3ccc(Cl)cc3)CC2)c2ccccc2C=Cc2ccccc21 [Example 1, 4-(4-Chlorophenyl)1-[3-(5-cyano-5H-dibenzo[a,d]cycloheptene-5-yl)propyl]piperidin-4-ol] | 7.06 |
| N#CC1(CCCN2CCC(O)(c3ccc(Br)cc3)CC2)c2ccccc2CSc2ccccc21 (centres unmarked) [Example 12, 4-(4-Bromophenyl)-1-[3-(11-cyano-6,11-dihydrodibenzo[b,e]thiepin-11-yl)propyl]piperidi n-4-ol] | 7.00 |
| Cc1ccc2c(c1)C(C#N)(CCCN1CCC(O)(c3ccc(Cl)cc3)CC1)c1ccccc1CO2 (centres unmarked) [Example 7, 4-(4-Chlorophenyl)-1-[3-(11-cyano-6,11-dihydro-2-methyldibenz[b,e]oxepin-11-yl)propyl]piperidin-4-ol] | 6.42 |
| N#CC1(CCCN2CCC(O)(c3ccc(F)cc3)CC2)c2ccccc2COc2ccccc21 (centres unmarked) [Example 4, 1-[3-(11-Cyano-6,11-dihydrodibenz[b,e]oxepin-11-yl)propyl]-4-(4-fluorophenyl)piperidin-4-ol] | 6.41 |
| OC1(c2ccc(Cl)cc2)CCN(CCCC2c3ccccc3CCc3ccccc32)CC1 [Example 18, 4-(4-Chlorophenyl)-1-[3-(10,11-dihydro-5H-dibenzo[a,d]cycloheptene-5-yl)propyl]piperidin-4-ol] | 7.26 |
| OC1(c2ccc(Cl)cc2)CCN(CCCC2c3ccccc3COc3ccccc32)CC1 (centres unmarked) [Example 19, 4-(4-Chlorophenyl)-1-[3-(6,11-dihydrodibenz[b,e]oxepin-11-yl)propyl]piperidin-4-ol] | 7.23 |
| OC1(c2ccc(Cl)cc2)CCN(CCCC2c3ccccc3CSc3ccccc32)CC1 (centres unmarked) [Example 17, 4-(4-Chlorophenyl)-1-[3-(6,11-dihydrodibenzo[b,e]thiepin-11-yl)propyl]piperidin-4-ol] | 7.15 |
| N#CC1(CCCN2CCC(O)(c3ccc(Cl)cc3)CC2)c2ccccc2CS(=O)(=O)c2ccccc21 (centres unmarked) [Example 16, 4-(4-Chlorophenyl)-1-[3-(11-cyano-6,11-dihydro-5,5-dioxodibenzo[b,e]thiepin-11-yl)propyl]piperidin-4-ol] | 7.10 |
| 1-[2-[3-[4-(4-chlorophenyl)-4-hydroxypiperidino]propyl]-2-(6,11-dihydrodibenzo[b,e]thiepi n-11-yl)ethyl]-3-(hydroxypropyl)urea [Example 23] | 5.66 |
| N#CC1(CCCN2CCC(O)(c3ccc(Cl)cc3)CC2)c2ccccc2COc2ccccc21 (centres unmarked) [Example 3, 4-(4-Chlorophenyl)-1-[3-(11-cyano-6,11-dihydrodibenz[b,e]oxepin-11-yl)propyl]piperidin-4-ol] | 6.96 |
